Test results as given in US8053197B2, “Methods for detecting and treating autoimmune disorders” (Oregon Health & Science University, priority 2004, dated 2011).

Key:
Foxp3 = experiment: E2 induction of Foxp3 in vitro in purified CD4+CD25− T cells (real-time RT-PCR); assay type: cell-based, mice
Protocol: FIG. 1 is a graph illustrating real-time RT-PCR analysis of Foxp3 expression in vitro in purified (>99%) CD4+CD25− T cells. E2 in combination with TCR stimulation by anti-CD3 antibody for 24 hours induced Foxp3 mRNA approximately 3-fold over levels in untreated cells or in anti-CD3 stimulated cells in the absence of E2. Foxp3 levels are shown relative to the housekeeping gene L32. Error bars are standard deviation of triplicate samples. One representative result of three is shown.
The capacity of E2 to induce Foxp3 expression in vitro in purified (>99%) CD4+CD25− T cells was tested. […]
For real-time RT-PCR analysis, total RNA was prepared using the Total RNeasy kit (Qiagen, Germantown, Md.) and cDNA was prepared using random hexamer primers (Invitrogen, Grand Island, N.Y.). Foxp3 message expression was quantified using the ABI 7000 Real-Time PCR System (Applied Biosystems, Foster City, Calif.). Amplification was performed in a total volume of 25 μl for 40 cycles and products were detected using SYBR Green I dye (Molecular Probes, Eugene, Oreg.). Samples were run in triplicate and relative expression level was determined by normalization to L32 with results presented as relative expression (RE) units. […] FoxP3 was detected with rabbit-anti-FoxP3 antiserum and standard chemiluminescence. […]

Treg compartment = Treg compartment (CD25, Foxp3 mRNA, FoxP3 protein) in naïve mice treated with E2 for 14 days; assay type: in vivo, C57BL/6 mice
Protocol: Quadrant statistics noted are percent of live gate.
FIG. 5 is a graph illustrating real-time PCR analysis of Foxp3 mRNA in CD4+ cells from FIG. 4. Data are presented as Foxp3 relative to housekeeping gene L32. Error bars are standard deviation of triplicate samples.
Cells were pooled from 8-10 mice before sorting.
For E2 therapy, a 3 mm pellet containing 2.5 mg or 15 mg (as indicated) 17β-estradiol (Innovative Research of America, Sarasota, Fla.) was implanted s.c. (dorsally) 7 days prior to immunization (EAE) or 14 days prior to analysis of naïve mice. These pellets are designed to release their contents at a constant rate over 60 days. Control animals were implanted with pellets containing saline. Serum levels of E2 were monitored by RIA.
Single-cell suspensions were prepared from spleens and RBCs lysed. Non-immunized mice receiving E2 pellets were sacrificed 14 days after implantation, while immunized mice were sacrificed at the peak of EAE disease severity, approximately 17 days after induction. […]
For real-time RT-PCR analysis, total RNA was prepared using the Total RNeasy kit (Qiagen, Germantown, Md.) and cDNA was prepared using random hexamer primers (Invitrogen, Grand Island, N.Y.). Foxp3 message expression was quantified using the ABI 7000 Real-Time PCR System (Applied Biosystems, Foster City, Calif.). Amplification was performed in a total volume of 25 μl for 40 cycles and products were detected using SYBR Green I dye (Molecular Probes, Eugene, Oreg.). Samples were run in triplicate and relative expression level was determined by normalization to L32 with results presented as relative expression (RE) units. […] For analysis of FoxP3 protein, cells were washed in PBS then lysed and sonicated in lysis buffer {25 mM Tris pH 8.5, 2% lithium dodecyl sulfate, 1 mM EDTA, 10 mM sodium fluoride, 1 mM sodium orthovanadate, and 1× Complete protease inhibitors (Roche Diagnostics, Mannheim, Germany)} and quantified by BCA (Pierce, Rockford, Ill.). […] FoxP3 was detected with rabbit-anti-FoxP3 antiserum and standard chemiluminescence. […]

[1] = tested on: CD4+CD25− responder cells; experiment: Suppressive activity of CD4+CD25+ T cells from treated mice on CD4+CD25− responder cells (I50); assay type: in vivo, C57BL/6 mice
Protocol: FIG. 7 illustrates the suppressive activity of CD4+CD25+ T cells recovered from placebo, E2-treated and pregnant mice was measured by their ability to suppress the growth of CD4+CD25−responder cells. Varying numbers of sorted CD4+CD25+ Treg cells from placebo-treated, E2-treated, and pregnant mice were co-cultured in triplicate for 3 days without (0:1 ratio) or with a constant number (5×10^4) of CD4+CD25−responder cells and APC (10^5) from naïve donors, and 0.5 μg/ml anti-CD3 mAb. Responder cells were also cultured alone (1:0 ratio). Proliferation was monitored by uptake of [^3H]-thymidine (1 μCi/well) for the last 12 h of culture. Data are representative of three independent experiments. *I50 values (% CD4+CD25+ cells that could inhibit the proliferation of anti-CD3-activated CD4+CD25−responder cells by 50%) represent the average of two or more independent experiments.
Female C57BL/6 mice were pretreated with 17β-estradiol (E2) or placebo for 7 days prior to challenge with MOG-35-55 peptide/CFA/PM to induce EAE. At the peak of EAE in the placebo group (day 15 after induction), cells were harvested from both the placebo-treated mice (score=4.5-5) and E2-treated mice (score=0). Cell mixtures were combined within each treatment group. […]

For `C[C@]12CC[C@@H]3c4ccc(O)cc4CC[C@H]3[C@@H]1CC[C@@H]2O` [E2, 17β-estradiol], the “fraction of CD25+ cells over TCR stimulation alone” value (Foxp3) was “increased”, the “Foxp3 mRNA induction over levels in untreated cells” value (Foxp3; E2 in combination with anti-CD3 antibody for 24 hours, relative to L32) was “approximately 3 fold” and the FoxP3 protein (Treg compartment) was “increase”. The “Foxp3 mRNA in CD4+ cells” value (Treg compartment) was “increase”, the “increase in the fraction of CD25+ cells among all CD4+ cells versus untreated mice” value (Treg compartment) was 43% and the “I50 of Treg suppressive activity” value ([1]; E2-protected mice challenged for EAE, day 15, control mice with EAE 30%) was 2.5%. The “average I50 value for CD4+CD25+ Treg cells” value ([1]; Treg from E2-treated mice without EAE, naïve mice 22.4±[…], n=3 experiments) was 14.7±0.3%.
